In paper PMC9239059, “Structure-Guided Synthesis of FK506 and FK520 Analogs with Increased Selectivity Exhibit In Vivo Therapeutic Efficacy against Cryptococcus” (mBio, 2022):
In brackets after ≈: the same amount, converted by molar mass.

Test system: T1, Cryptococcus neoformans (H99)
T1 construct: H99
Assay: microbe, parasite or virus in culture
Parameters: CLSI M27-A3 broth microdilution in RPMI 1640 at 37 C, growth inhibition of C. neoformans (MIC)
Details: Cryptococcus neoformans, read-out: MIC (μg/mL) against: / Cryptococcus neoformans (H99)^a
Procedure: In vitro antifungal activities of FK506, FK520, and analogs were assessed in RPMI 1640 (Sigma-Aldrich) for all strains tested. MICs/minimum effective concentrations (MECs) for each drug were measured using modified Clinical and Laboratory Standards Institute (CLSI) M38-A2 and M27-A3 standard in vitro antifungal susceptibility protocols. Broth microdilution assays for MIC/MEC assessment were performed as described previously ([33]). All antifungal assays with C. neoformans were performed at 37°C. Antifungal susceptibility testing for C. albicans was performed in the presence of a uniform 1 μg/mL concentration of fluconazole to sensitize the organism to calcineurin inhibition. MICs/minimum effective concentrations (MECs) were determined for each of the novel analogs against the three major human fungal pathogens, A. fumigatus, C. neoformans, and C. albicans. […] Thus, analogs of FK506 and FK520 can tolerate up to 100-fold reduction in antifungal activity and still be considered for in vivo testing. For C. neoformans, MICs were the most uniform and ranged from 0.2 to 2 μg/mL, which is between 4- and 40-fold reduced for antifungal activity. C. albicans MICs ranged from 0.2 to 6.25 μg/mL, which is between 10- and 312.5-fold reduced for activity. Despite being one of the most difficult to treat fungal infections, all six analogs were active against A. fumigatus with MECs ranging from 1 to 2 μg/mL or a 62.5- to 125-fold reduction in activity.

SMILES: C=CC[C@@H]1/C=C(\C)C[C@H](C)C[C@H](OC)[C@H]2O[C@@](O)(C(=O)C(=O)N3CCCC[C@H]3C(=O)O[C@H](/C(C)=C/[C@@H]3CC[C@@H](O)[C@H](OC)C3)[C@H](C)[C@@H](O)C/C1=N/NC(C)=O)[C@H](C)C[C@@H]2OC [JH-FK-01, APX879]
- MIC: 1 µg/mL (≈ 1.16 µM)
